Test results reported in patent US20190126075A1, “FOOD AND DRINK PRODUCT CONTAINING POORLY DIGESTIBLE COMPOUND AND COLONIC-HYDROGEN-GAS PRODUCING AGENT” (Kyodo Milk Industry Co., Ltd., priority 2015, published 2019).
Marks after values point to notes of the source that are not given here.

Columns and labels:
[1] = tested on: fecal bacteria; assay: H2 production in fecal incubation system, single digestion-resistant components (Example 1); format: cell-based, human; conditions: final concentration 0.5%; for subjects whose fecal samples showed a sample/control ratio of 10 or higher: 10 subjects; for ratio of the H2 production concentration in sample relative to control: 37° C. for 24 hours
Excerpt: Twenty-three different types of digestion-resistant components (cellulose, isomaltooligosaccharide, lactose, fructooligosaccharide, galactooligosaccharide, cellobiose, xylooligosaccharide, xylitol, sorbitol, erythritol, maltitol, mannitol, pectin, sodium alginate, glucomannan, lignin, chitin, chitosan, resistant starch, resistant dextrin, reduced resistant dextrin, kale, or young barley leaf) were each diluted with phosphate buffered saline (PBS) to adjust the concentration to 2.5% (w/v). Among these components, those which were not completely dissolved were used in a suspended state. The control used was a PBS solution not containing any of these components.
Fecal samples were collected from 10 human healthy adult subjects (7 male, 3 female, average aged 35.8), and were used within 5 hours after defecation.
(§1) Twenty milliliters of an anaerobic dilution solution (a solution prepared by dissolving KH2PO4, Na2HPO4, L-cysteine hydrochloride, Tween 80, and 0.1% Resazurin in a vial, jet-injecting N2 and CO2 (80%, 20%) into the vial, and autoclaving the vial sealed with a butyl rubber stopper) was added to 5 g of each of the collected samples, and the mixture was stirred by vortexing and then centrifuged (at 1000 g for 1 min.) to remove solids such as undigested food debris. 160 μL of each of the fecal suspension supernatants harboring fecal bacteria was dispensed into an Eppendorf tube, and 40 μL of each of the prepared solutions of digestion-resistant components in PBS was added to each of the Eppendorf tubes (final concentrations of digestion-resistant components: 0.5%). The Eppendorf tubes containing a mixture of fecal suspension and digestion-resistant component were placed into vial bottles (40 mm×75 mm, 50 mL) while the lids of the tubes and bottles were left open, and a mixed gas of N2 and CO2 (79.8%, 20.2%) was jet-injected to render the Eppendorf tubes and the bottles anaerobic. The vials were sealed with butyl rubber stoppers and incubated in an incubator (at 37° C. for 24 hours). The experiments were done in duplicate per sample, with each experiment being repeated three times.
(§2) Half a milliliter of the gas in each of the vial bottles was collected in a 1.0 mL gastight syringe (produced by Hamilton Company) and analyzed by TRIlyzer (Taiyo Nippon Sanso Corporation). In this process, when concentration exceeded the detection limit, 1 mL of the sample was injected into a 50 mL vial bottle, diluted 50-fold, and subjected to concentration measurement. Before gas collection, the gas in the vial bottles was stirred five times using the syringe.
The ratio of the H2 production concentration in each of the samples relative to that in the control was calculated, and those sample/control ratios of 10 or higher are shaded in the table (Table 1).

[2] = tested on: fecal bacteria; assay: H2 production in fecal incubation system, single components vs mixture of three (Example 2); format: cell-based, human; conditions: 14 subjects; 0.8% solution of each component in PBS
Experimental: as §1, §2
Each of maltitol, galactooligosaccharide and glucomannan was dissolved in PBS to give a 0.8% solution. Similarly, in order to prepare a mixed solution of the three components, these components were mixed at a concentration of 0.8% each, and dissolved in PBS. The control used was a PBS solution not containing any of these components.
Fecal samples from 14 human healthy adult subjects (11 male, 3 female, average aged 40.9) were used.
Fecal treatment and incubation, and H2 concentration measurement, were performed by the same procedures as in Example 1.

## O=C[C@H](O)[C@@H](O)[C@H](O[C@@H]1O[C@H](CO)[C@@H](O)[C@H](O)[C@H]1O)[C@H](O)CO [Cellobiose, cellobiose]
[1]
  subjects whose fecal samples showed a sample/control ratio of 10 or higher: 7 of 10
[1]; Subject No. 1 fecal sample
  ratio of the H2 production concentration in sample relative to control: 25.7*
[1]; Subject No. 2 fecal sample
  ratio of the H2 production concentration in sample relative to control: 37.0*
[1]; Subject No. 3 fecal sample
  ratio of the H2 production concentration in sample relative to control: 67.3*
[1]; Subject No. 4 fecal sample
  ratio of the H2 production concentration in sample relative to control: 76.5*
[1]; Subject No. 5 fecal sample
  ratio of the H2 production concentration in sample relative to control: 8.1
[1]; Subject No. 6 fecal sample
  ratio of the H2 production concentration in sample relative to control: 52.0*
[1]; Subject No. 7 fecal sample
  ratio of the H2 production concentration in sample relative to control: 3.1
[1]; Subject No. 8 fecal sample
  ratio of the H2 production concentration in sample relative to control: 7.5
[1]; Subject No. 9 fecal sample
  ratio of the H2 production concentration in sample relative to control: 46.4*
[1]; Subject No. 10 fecal sample
  ratio of the H2 production concentration in sample relative to control: 18.9*

## OC[C@@H](O)[C@@H](O)[C@H](O)[C@@H](O)CO [Sorbitol, sorbitol]
[1]
  subjects whose fecal samples showed a sample/control ratio of 10 or higher: 4 of 10
[1]; Subject No. 1 fecal sample
  ratio of the H2 production concentration in sample relative to control: 31.6*
[1]; Subject No. 2 fecal sample
  ratio of the H2 production concentration in sample relative to control: 9.6
[1]; Subject No. 3 fecal sample
  ratio of the H2 production concentration in sample relative to control: 33.0*
[1]; Subject No. 4 fecal sample
  ratio of the H2 production concentration in sample relative to control: 54.8*
[1]; Subject No. 5 fecal sample
  ratio of the H2 production concentration in sample relative to control: 3.4
[1]; Subject No. 6 fecal sample
  ratio of the H2 production concentration in sample relative to control: 4.2
[1]; Subject No. 7 fecal sample
  ratio of the H2 production concentration in sample relative to control: 68.6*
[1]; Subject No. 8 fecal sample
  ratio of the H2 production concentration in sample relative to control: 1.7
[1]; Subject No. 9 fecal sample
  ratio of the H2 production concentration in sample relative to control: 0.1
[1]; Subject No. 10 fecal sample
  ratio of the H2 production concentration in sample relative to control: 4.5

## OC[C@@H](O)[C@@H](O[C@H]1O[C@H](CO)[C@@H](O)[C@H](O)[C@H]1O)[C@H](O)[C@@H](O)CO [Maltitol, 4-O-α-D-glucopyranosyl-D-glucitol]
[1]
  subjects whose fecal samples showed a sample/control ratio of 10 or higher: 6 of 10
[1]; Subject No. 1 fecal sample
  ratio of the H2 production concentration in sample relative to control: 12.5*
[1]; Subject No. 2 fecal sample
  ratio of the H2 production concentration in sample relative to control: 7.2
[1]; Subject No. 3 fecal sample
  ratio of the H2 production concentration in sample relative to control: 386.6*
[1]; Subject No. 4 fecal sample
  ratio of the H2 production concentration in sample relative to control: 22.1*
[1]; Subject No. 5 fecal sample
  ratio of the H2 production concentration in sample relative to control: 2.6
[1]; Subject No. 6 fecal sample
  ratio of the H2 production concentration in sample relative to control: 8.4
[1]; Subject No. 7 fecal sample
  ratio of the H2 production concentration in sample relative to control: 315.5*
[1]; Subject No. 8 fecal sample
  ratio of the H2 production concentration in sample relative to control: 0.8
[1]; Subject No. 9 fecal sample
  ratio of the H2 production concentration in sample relative to control: 55.6*
[1]; Subject No. 10 fecal sample
  ratio of the H2 production concentration in sample relative to control: 32.3*
[2]
  subjects whose fecal samples showed a sample/control H2 production concentration ratio of 2 or higher: 9 of 14
  subjects whose fecal samples showed a sample/control H2 production concentration ratio of 3 or higher: 5 of 14
  subjects whose fecal samples showed a sample/control H2 production concentration ratio of 5 or higher: 2 of 14

## OC[C@@H](O)[C@@H](O)CO [Erythritol, erythritol]
[1]
  subjects whose fecal samples showed a sample/control ratio of 10 or higher: 2 of 10
[1]; Subject No. 1 fecal sample
  ratio of the H2 production concentration in sample relative to control: 12.7*
[1]; Subject No. 2 fecal sample
  ratio of the H2 production concentration in sample relative to control: 27.6*
[1]; Subject No. 3 fecal sample
  ratio of the H2 production concentration in sample relative to control: 3.8
[1]; Subject No. 4 fecal sample
  ratio of the H2 production concentration in sample relative to control: 1.5
[1]; Subject No. 5 fecal sample
  ratio of the H2 production concentration in sample relative to control: 7.1
[1]; Subject No. 6 fecal sample
  ratio of the H2 production concentration in sample relative to control: 1.8
[1]; Subject No. 7 fecal sample
  ratio of the H2 production concentration in sample relative to control: 4.0
[1]; Subject No. 8 fecal sample
  ratio of the H2 production concentration in sample relative to control: 1.8
[1]; Subject No. 9 fecal sample
  ratio of the H2 production concentration in sample relative to control: 1.0
[1]; Subject No. 10 fecal sample
  ratio of the H2 production concentration in sample relative to control: 2.1

## 4′-galactosyllactose [Galactooligosaccharide]
[1]
  subjects whose fecal samples showed a sample/control ratio of 10 or higher: 5 of 10
[1]; Subject No. 1 fecal sample
  ratio of the H2 production concentration in sample relative to control: 5.3
[1]; Subject No. 2 fecal sample
  ratio of the H2 production concentration in sample relative to control: 18.5*
[1]; Subject No. 3 fecal sample
  ratio of the H2 production concentration in sample relative to control: 35.8*
[1]; Subject No. 4 fecal sample
  ratio of the H2 production concentration in sample relative to control: 16.9*
[1]; Subject No. 5 fecal sample
  ratio of the H2 production concentration in sample relative to control: 15.4*
[1]; Subject No. 6 fecal sample
  ratio of the H2 production concentration in sample relative to control: 22.1*
[1]; Subject No. 7 fecal sample
  ratio of the H2 production concentration in sample relative to control: 0.8
[1]; Subject No. 8 fecal sample
  ratio of the H2 production concentration in sample relative to control: 0.8
[1]; Subject No. 9 fecal sample
  ratio of the H2 production concentration in sample relative to control: 0.1
[1]; Subject No. 10 fecal sample
  ratio of the H2 production concentration in sample relative to control: 5.9
[2]
  subjects whose fecal samples showed a sample/control H2 production concentration ratio of 2 or higher: 8 of 14
  subjects whose fecal samples showed a sample/control H2 production concentration ratio of 3 or higher: 0 of 14
  subjects whose fecal samples showed a sample/control H2 production concentration ratio of 5 or higher: not in any

## OC[C@@H](O)[C@H](O)[C@@H](O)CO [Xylitol, xylitol]
[1]
  subjects whose fecal samples showed a sample/control ratio of 10 or higher: 6 of 10
[1]; Subject No. 1 fecal sample
  ratio of the H2 production concentration in sample relative to control: 18.4*
[1]; Subject No. 2 fecal sample
  ratio of the H2 production concentration in sample relative to control: 11.1*
[1]; Subject No. 3 fecal sample
  ratio of the H2 production concentration in sample relative to control: 40.2*
[1]; Subject No. 4 fecal sample
  ratio of the H2 production concentration in sample relative to control: 72.4*
[1]; Subject No. 5 fecal sample
  ratio of the H2 production concentration in sample relative to control: 8.8
[1]; Subject No. 6 fecal sample
  ratio of the H2 production concentration in sample relative to control: 3.2
[1]; Subject No. 7 fecal sample
  ratio of the H2 production concentration in sample relative to control: 1.4
[1]; Subject No. 8 fecal sample
  ratio of the H2 production concentration in sample relative to control: 1.9
[1]; Subject No. 9 fecal sample
  ratio of the H2 production concentration in sample relative to control: 12.5*
[1]; Subject No. 10 fecal sample
  ratio of the H2 production concentration in sample relative to control: 60.2*

## OC[C@@H](O)[C@@H](O)[C@H](O)[C@H](O)CO [Mannitol, mannitol]
[1]
  subjects whose fecal samples showed a sample/control ratio of 10 or higher: 5 of 10
[1]; Subject No. 1 fecal sample
  ratio of the H2 production concentration in sample relative to control: 2.2
[1]; Subject No. 2 fecal sample
  ratio of the H2 production concentration in sample relative to control: 28.2*
[1]; Subject No. 3 fecal sample
  ratio of the H2 production concentration in sample relative to control: 234.7*
[1]; Subject No. 4 fecal sample
  ratio of the H2 production concentration in sample relative to control: 81.9*
[1]; Subject No. 5 fecal sample
  ratio of the H2 production concentration in sample relative to control: 6.6
[1]; Subject No. 6 fecal sample
  ratio of the H2 production concentration in sample relative to control: 76.2*
[1]; Subject No. 7 fecal sample
  ratio of the H2 production concentration in sample relative to control: 54.3*
[1]; Subject No. 8 fecal sample
  ratio of the H2 production concentration in sample relative to control: 1.7
[1]; Subject No. 9 fecal sample
  ratio of the H2 production concentration in sample relative to control: 0.0
[1]; Subject No. 10 fecal sample
  ratio of the H2 production concentration in sample relative to control: 3.5

## OC[C@H]1O[C@@H](O[C@H]2[C@H](O)[C@@H](O)C(O)O[C@@H]2CO)[C@H](O)[C@@H](O)[C@H]1O (stereo partly shown) [Lactose, lactose]
[1]
  subjects whose fecal samples showed a sample/control ratio of 10 or higher: 4 of 10
[1]; Subject No. 1 fecal sample
  ratio of the H2 production concentration in sample relative to control: 4.9
[1]; Subject No. 2 fecal sample
  ratio of the H2 production concentration in sample relative to control: 9.5
[1]; Subject No. 3 fecal sample
  ratio of the H2 production concentration in sample relative to control: 36.6*
[1]; Subject No. 4 fecal sample
  ratio of the H2 production concentration in sample relative to control: 28.7*
[1]; Subject No. 5 fecal sample
  ratio of the H2 production concentration in sample relative to control: 22.4*
[1]; Subject No. 6 fecal sample
  ratio of the H2 production concentration in sample relative to control: 22.1*
[1]; Subject No. 7 fecal sample
  ratio of the H2 production concentration in sample relative to control: 0.5
[1]; Subject No. 8 fecal sample
  ratio of the H2 production concentration in sample relative to control: 0.7
[1]; Subject No. 9 fecal sample
  ratio of the H2 production concentration in sample relative to control: 0.1
[1]; Subject No. 10 fecal sample
  ratio of the H2 production concentration in sample relative to control: 7.1
